{
  "source": "patent US8293280B2",
  "about": "“Method for treatment of HIV infection” (priority 2004, dated 2012)",
  "test_system": "SIVmac239",
  "type": "in vivo, rhesus macaques (Macaca mulatta)",
  "data": [
    {"smiles": "C[C@H](Cn1cnc2c(N)ncnc21)OCP(=O)(O)O", "note": "[PMPA, 9-R-(2-phophorylmethoxypropyl) adenine]", "values": [
      {"measurement": "viral loads after termination of PMPA therapy", "setting": "Group 2: no further treatment, Group 3: extract 3.3 NU/kg s.c. daily for 60 days, initiated 2 days prior to termination of PMPA", "value": "viral loads rebounded soon after the discontinuation of PMPA therapy"},
      {"measurement": "plasma viral loads", "setting": "by day 28 of PMPA therapy, 30 mg/kg s.c. daily for 28 days, Groups 2 and 3", "value": "100 to 1000", "unit": "viral copies per mL"}
    ]}
  ]
}
